Biological target: HIV protease (Human immunodeficiency virus type 1 group M subtype B, UniProt P04585)
Assay: Enzymatic (FRET fluorometric) assay for determining the inhibition constant (Ki) of compounds targeting the HIV protease
Format: biochemical
Conditions: FRET substrate (EDANS/DABCYL), equation of Henderson; read-out: Ki
Text: Enzymatic Assay for Determining the Inhibition Constant (Ki) of Synthetic Compounds Targeting the HIV Protease
This is a fluorometric assay based on the cleavage by protease of a substrate carrying a donor group (EDANS) and an acceptor group (DABCYL) on each side of the cleavage site, interacting together through fluorescence resonance energy transfer (FRET) as described by Matayoshi et al. (Science 247:[…], 1990).
After calculation of Vo and Vi, the inhibition constant (Ki) of the compound is determined using the equation of Henderson: [formula]
where Vo=the enzyme's initial velocity
Vi=the enzyme velocity in the presence of the inhibitory compound,
[I]=inhibitor concentration, [S]=substrate concentration,
Km=Michaelis-Menten constant and Kiapp=apparent Ki
Graphs are traced and the Ki determined using GraphPad Prism software v. 3.0.

CC(C)CN([C@@H](CCCCNC(=O)N(Cc1ccccc1)Cc1cccnc1)C(=O)O)S(=O)(=O)c1ccc(N)cc1 [Example 47, Nα-(4-Aminobenzenesulfonyl)-Nα-isobutyl-Nε-[N′-benzyl-N′-(3-picolyl)aminocarbonyl]-L-lysine]
Ki: 2.4 nM

Cc1ccc(S(=O)(=O)N(CC(C)C)[C@@H](CCCCNC(=S)NCCc2c[nH]c3ccccc23)C(=O)O)cc1 [Example 15]
Ki: 111 nM

CC(C)CN([C@H](CO)CCCCNC(=O)N(Cc1ccccc1)Cc1cccnc1)S(=O)(=O)c1ccc(N)cc1 [Example 50, (2S) 2-N-(4-Aminobenzenesulfonyl)-2-N-isobutyl-6-N-[N′-benzyl-N′-(3-picolyl)aminocarbonyl]-2,6-diaminohexanol]
Ki: 34 nM

Cc1ccc(S(=O)(=O)N(CC(C)C)[C@@H](CCCCNC(=O)N(Cc2ccccc2)Cc2ccccc2[N+](=O)[O-])C(=O)O)cc1 [Example 54, Nα-Isobutyl-Nα-(4-methylbenzenesulfonyl)-Nε-[N′-benzyl-N′-(2-nitrobenzyl)aminocarbonyl]-L-lysine]
Ki: 0.9 nM

CC(C)CN([C@H](CO)CCCCNC(=O)N(Cc1ccc(C(F)(F)F)cc1)Cc1ccc2c(c1)OCO2)S(=O)(=O)c1ccc(N)cc1 [Example 92, (2S) 2-N-(4-Aminobenzenesulfonyl)-2-N-isobutyl-6-N-[N′-(4-trifluoromethylbenzyl)-N′-piperonylaminocarbonyl]-2,6-diaminohexanol]
Ki: 2.5 nM

Cc1ccc(S(=O)(=O)N(CC(C)C)[C@@H](CCCCNC(=O)N(C)Cc2ccccc2)C(=O)O)cc1 [Example 40, Nα-Isobutyl-Nα-(4-methylbenzenesulfonyl)-Nε-[(N′-benzyl-N′-methyl)aminocarbonyl]-L-lysine]
Ki: 55 nM

CC(C)CN([C@H](CO)CCCCNC(=O)N(Cc1ccc2c(c1)OCO2)Cc1cccs1)S(=O)(=O)c1ccc(N)cc1 [Example 75, (2S) 2-N-(4-Aminobenzenesulfonyl)-2-N-isobutyl-6-N-[N′-(2-thiophenemethyl)-N′-piperonylaminocarbonyl]-2,6-diaminohexanol]
Ki: 2 nM

Cc1ccc(S(=O)(=O)N(CC(C)C)[C@@H](CCCCNC(=O)N(Cc2ccccc2)Cc2ccc([N+](=O)[O-])cc2)C(=O)O)cc1 [Example 56, Nα-Isobutyl-Nα-(4-methylbenzenesulfonyl)-Nε-[N′-benzyl-N′-(4-nitrobenzyl)aminocarbonyl]-L-lysine]
Ki: 1.5 nM

COc1ccc(CN(Cc2ccncc2)C(=O)NCCCC[C@@H](CO)N(CC(C)C)S(=O)(=O)c2ccc(N)cc2)cc1 [Example 53, (2S) 2-N-(4-Aminobenzenesulfonyl)-2-N-isobutyl-6-N-[N′-(4-methoxybenzyl)-N′-(4-picolyl)aminocarbonyl]-2,6-diaminohexanol]
Ki: 90 nM

CC(C)CN([C@@H](CCCCNC(=O)NCc1ccccc1)C(=O)O)S(=O)(=O)c1ccc(N)cc1 [Example 18, Nα-(4-Aminobenzenesulfonyl)-Nα-isobutyl-Nε-benzylaminocarbonyl-L-lysine]
Ki: 200 nM

Cc1ccc(S(=O)(=O)N(CC(C)C)[C@H](CO)CCCCNC(=O)N(Cc2ccccc2)Cc2ccc(N)cc2)cc1 [Example 64, (2S) 2-N-Isobutyl-2-N-(4-methylbenzenesulfonyl)-6-N-[N′-(4-aminobenzyl)-N′-benzylaminocarbonyl]-2,6-diaminohexanol]
Ki: 21 nM

CC(C)CN([C@H](CO)CCCCNC(=O)N(Cc1ccccc1)Cc1ccccc1)S(=O)(=O)c1ccc(N)cc1 [Example 41, (2S) 2-N-(4-Aminobenzenesulfonyl)-2-N-isobutyl-6-N-(N′,N′-dibenzylaminocarbonyl)-2,6-diaminohexanol]
Ki: 12 nM

Cc1ccc(S(=O)(=O)N(CC(C)C)[C@@H](CCCCNC(=S)N(Cc2ccccc2)Cc2ccccc2)C(=O)O)cc1 [Example 37, Nα-Isobutyl-Nα-(4-methylbenzenesulfonyl)-Nε-(N′,N′-dibenzylaminothiocarbonyl)-L-lysine]
Ki: 12 nM

CC(C)CN([C@H](CO)CCCCNC(=O)NCc1ccc2c(c1)OCO2)S(=O)(=O)c1ccc(N)cc1 [Example 74, (2S) 2-N-(4-Aminobenzenesulfonyl)-2-N-isobutyl-6-N-piperonylaminocarbonyl-2,6-diaminohexanol]
Ki: 22 nM

COc1ccc(CN(Cc2ccncc2)C(=O)NCCCC[C@@H](C(=O)O)N(CC(C)C)S(=O)(=O)c2ccc(C)cc2)cc1 [Example 43, Nα-Isobutyl-Nα-(4-methylbenzenesulfonyl)-Nε-[N′-(4-methoxybenzyl)-N′-(4-picolyl)aminocarbonyl]-L-lysine]
Ki: 7.9 nM

CC(C)CN([C@H](CO)CCCCNC(=O)N(CCc1cccs1)Cc1ccc(F)cc1)S(=O)(=O)c1ccc(N)cc1 [Example 69, (2S) 2-N-(4-Aminobenzenesulfonyl)-2-N-isobutyl-6-N-[N′-(4-fluorobenzyl)-N′-(2-thiophenethyl)aminocarbonyl]-2,6-diaminohexanol]
Ki: 34 nM

CC(C)CCN([C@H](CO)CCCCNC(=O)N(Cc1ccc([N+](=O)[O-])cc1)Cc1ccc2c(c1)OCO2)S(=O)(=O)c1ccc(N)cc1 [Example 89, (2S) 2-N-(4-Aminobenzenesulfonyl)-2-N-(3-methylbutyl)-6-N-[N′-(4-nitrobenzyl)-N′-piperonylaminocarbonyl]-2,6-diaminohexanol]
Ki: 2.2 nM

COc1ccc(CN(Cc2ccncc2)C(=O)NCCCC[C@@H](C(=O)O)N(CC(C)C)S(=O)(=O)c2ccc(N)cc2)cc1 [Example 49, Nα-(4-Aminobenzenesulfonyl)-Nα-isobutyl-Nε-[N′-(4-methoxybenzyl)-N′-(4-picolyl)aminocarbonyl]-L-lysine]
Ki: 12 nM

Cc1ccc(S(=O)(=O)N(CC(C)C)[C@@H](CCCCNC(=NC#N)NCc2ccccc2)C(=O)O)cc1 [Example 28, Nα-Isobutyl-Nα-(4-methylbenzenesulfonyl)-Nε-(benzylaminocarbonyl-N-cyanoamidine)-L-lysine]
Ki: 63 nM

CCC(C)CN(C(CO)CCCCNC(=O)N(Cc1ccccc1)Cc1cccc2c1OCO2)S(=O)(=O)c1ccc(N)cc1 [Example 97, (2S) 2-N-(4-Aminobenzenesulfonyl)-2-N-(2-methylbutyl)-6-N-[N′-benzyl-N′-(2,3-methylenedioxy)benzylaminocarbonyl]-2,6-diaminohexanol]
Ki: 21 nM

CC(C)CN([C@H](CO)CCCCNC(=O)N(Cc1ccsc1)Cc1ccc2c(c1)OCO2)S(=O)(=O)c1ccc(N)cc1 [Example 81, (2S) 2-N-(4-Aminobenzenesulfonyl)-2-N-isobutyl-6-N-[N′-(3-thiophenemethyl)-N′-piperonylaminocarbonyl]-2,6-diaminohexanol]
Ki: 6.3 nM

Cc1ccc(S(=O)(=O)N(CC(C)C)[C@@H](CCCCNC(=S)NCc2ccccc2)C(=O)O)cc1 [Example 16, Nα-Isobutyl-Nα-(4-methylbenzenesulfonyl)-Nε-benzylaminothiocarbonyl-L-lysine]
Ki: 152 nM

Cc1ccc(S(=O)(=O)N(CC(C)C)[C@H](CO)CCCCNC(=O)N(Cc2ccccc2)Cc2ccccc2N)cc1 [Example 62, (2S) 2-N-Isobutyl-2-N-(4-methylbenzenesulfonyl)-6-N-[N′-(2-aminobenzyl)-N′-benzylaminocarbonyl]-2,6-diaminohexanol]
Ki: 39 nM

CC(C)CN([C@H](CO)CCCCNC(=O)N(Cc1ccc(C(F)(F)F)cc1)Cc1cccc2c1OCO2)S(=O)(=O)c1ccc(N)cc1 [Example 90, (2S) 2-N-(4-Aminobenzenesulfonyl)-2-N-isobutyl-6-N-[N′-(4-trifluoromethylbenzyl)-N′-(2,3-methylenedioxy)benzylaminocarbonyl]-2,6-diaminohexanol]
Ki: 8.9 nM

CC(C)CN([C@H](CO)CCCCNC(=O)N(Cc1ccc(F)cc1)Cc1cccnc1)S(=O)(=O)c1ccc(N)cc1 [Example 70, (2S) 2-N-(4-Aminobenzenesulfonyl)-2-N-isobutyl-6-N-[N′-(4-fluorobenzyl)-N′-(3-picolyl)aminocarbonyl]-2,6-diaminohexanol]
Ki: 30 nM

CC(C)CN([C@@H](CCCCNC(=O)N(Cc1ccccc1)Cc1ccccc1)C(=O)O)S(=O)(=O)c1ccc(N)cc1 [Example 36, Nα-(4-Aminobenzenesulfonyl)-Nα-isobutyl-Nε-(N′,N′-dibenzylaminocarbonyl)-L-lysine]
Ki: 1.8 nM

Cc1ccc(S(=O)(=O)N(CC(C)C)[C@@H](CCCCNC(=O)NCCc2c[nH]c3ccccc23)C(=O)O)cc1 [Example 6, Nα-Isobutyl-Nα-(4-methylbenzenesulfonyl)-Nε-[2′-(3-indolyl)ethylaminocarbonyl]-L-lysine]
Ki: 40 nM

CC(C)CCN([C@H](CO)CCCCNC(=O)N(Cc1ccc(C(F)(F)F)cc1)Cc1ccc2c(c1)OCO2)S(=O)(=O)c1ccc(N)cc1 [Example 94, (2S) 2-N-(4-Aminobenzenesulfonyl)-2-N-(3-methylbutyl)-6-N-[N′-(4-trifluoromethylbenzyl)-N′-piperonylaminocarbonyl]-2,6-diaminohexanol]
Ki: 3 nM

Cc1ccc(S(=O)(=O)N(CC(C)C)[C@@H](CCCCNC(=O)N(Cc2ccccc2)Cc2ccccc2)C(=O)O)cc1 [Example 32, Nα-Isobutyl-Nα-(4-methylbenzenesulfonyl)-Nε-(N′,N′-dibenzylaminocarbonyl)-L-lysine]
Ki: 7.2 nM

CC(C)CN([C@H](CO)CCCCNC(=O)N[C@@H](Cc1c[nH]c2ccccc12)C(=O)O)S(=O)(=O)c1ccc(N)cc1 [Example 65, (2S,2′S) 2-N-(4-Aminobenzenesulfonyl)-2-N-isobutyl-6-N-(S-tryptophanyl-N′-carbonyl)-2,6-diaminohexanol]
Ki: > 300 nM

Cc1ccc(S(=O)(=O)N(CC(C)C)[C@@H](CCCCNC(=O)NCCc2ccccc2)C(=O)O)cc1 [Example 21, Nα-Isobutyl-Nα-(4-methylbenzenesulfonyl)-Nε-(phenethylaminocarbonyl)-L-lysine]
Ki: 167 nM

Source: patent US6528532B1, “Urea derivatives as HIV aspartyl protease inhibitors” (Pharmacor Inc., priority 2002, dated 2003)
